Laboratory results: paper PMC2430034, “Structural Development Studies of Subtype-Selective Ligands for Peroxisome Proliferator-Activated Receptors (PPARs) Based on the 3,4-Disubstituted Phenylpropanoic Acid Scaffold as a Versatile Template” (PPAR Research, 2008)
Like-named read-outs stand apart in the source and are kept apart here.

Tests used:
Format in all cases: cell-based
PPARα [1] = target: T1, PPARα (Homo sapiens, UniProt Q07869); assay: PPARα-GAL4 chimeric receptor transactivation in HEK-293 cells; settings: PPAR-GAL4 chimeric receptors, transiently transfected HEK-293 cells; ia = inactive at 10 μM
T1 sequence (Q07869 200-468 limits assumed): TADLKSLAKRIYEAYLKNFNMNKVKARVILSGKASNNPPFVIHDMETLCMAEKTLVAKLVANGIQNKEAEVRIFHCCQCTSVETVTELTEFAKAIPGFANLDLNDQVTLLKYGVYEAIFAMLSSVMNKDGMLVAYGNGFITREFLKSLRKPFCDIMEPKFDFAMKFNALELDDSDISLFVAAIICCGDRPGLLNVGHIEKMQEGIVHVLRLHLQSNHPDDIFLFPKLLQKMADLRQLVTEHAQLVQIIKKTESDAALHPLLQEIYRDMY

PPARδ [2] = target: T2, PPARδ (Homo sapiens, UniProt Q03181); assay: cell-based; settings: PPAR-GAL4 chimeric receptors, transiently transfected HEK-293 cells; ia = inactive at 10 μM; read-out: Transactivation activity EC50 PPARδ
T2 sequence (Q03181 171-441 limits assumed): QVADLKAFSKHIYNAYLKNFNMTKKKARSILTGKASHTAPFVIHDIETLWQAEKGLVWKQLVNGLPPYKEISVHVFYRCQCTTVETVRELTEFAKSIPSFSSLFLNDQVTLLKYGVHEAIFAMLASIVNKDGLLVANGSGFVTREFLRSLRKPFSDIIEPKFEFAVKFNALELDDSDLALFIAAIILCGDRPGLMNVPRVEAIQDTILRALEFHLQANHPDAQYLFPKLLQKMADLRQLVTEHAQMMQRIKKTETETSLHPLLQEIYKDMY

PPARγ [3] = target: T3, PPARγ (Homo sapiens, UniProt P37231); assay: cell-based; settings: PPAR-GAL4 chimeric receptors, transiently transfected HEK-293 cells; ia = inactive at 10 μM; read-out: Transactivation activity EC50 PPARγ
T3 sequence (P37231 238-505 limits assumed): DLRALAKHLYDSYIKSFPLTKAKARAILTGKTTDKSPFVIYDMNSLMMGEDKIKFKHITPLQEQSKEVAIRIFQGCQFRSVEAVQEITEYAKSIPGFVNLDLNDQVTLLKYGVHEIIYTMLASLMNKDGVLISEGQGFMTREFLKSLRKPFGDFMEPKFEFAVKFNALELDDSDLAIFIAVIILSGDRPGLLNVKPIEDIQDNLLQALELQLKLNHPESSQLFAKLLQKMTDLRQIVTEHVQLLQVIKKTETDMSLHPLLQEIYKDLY

PPARα [4] = target: T1, PPARα; assay: PPARα-GAL4 chimeric receptor transactivation in CHO-K1 cells; settings: PPAR-GAL4 chimeric receptors, transiently transfected CHO-K1 cells, ia = inactive at 10 μM; for EC50: read-out: Transactivation activity EC50 PPARα
PPARδ [5] = target: T4, PPARδ (Homo sapiens, UniProt Q03181); assay: cell-based; settings: PPAR-GAL4 chimeric receptors, transiently transfected CHO-K1 cells, ia = inactive at 10 μM; for EC50: read-out: Transactivation activity EC50 PPARδ
T4 sequence (Q03181 211-441 limits assumed): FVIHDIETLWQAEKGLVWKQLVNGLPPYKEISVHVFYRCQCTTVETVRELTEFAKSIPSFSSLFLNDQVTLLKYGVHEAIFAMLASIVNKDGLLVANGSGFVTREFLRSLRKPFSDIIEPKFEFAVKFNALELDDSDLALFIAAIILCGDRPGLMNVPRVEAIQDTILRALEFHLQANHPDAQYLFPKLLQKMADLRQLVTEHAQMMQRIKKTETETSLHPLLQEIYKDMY

PPARγ [6] = target: T5, PPARγ (Homo sapiens, UniProt P37231); assay: cell-based; settings: PPAR-GAL4 chimeric receptors, transiently transfected CHO-K1 cells, ia = inactive at 10 μM; for EC50: read-out: Transactivation activity EC50 PPARγ
T5 sequence (P37231 232-505 limits assumed): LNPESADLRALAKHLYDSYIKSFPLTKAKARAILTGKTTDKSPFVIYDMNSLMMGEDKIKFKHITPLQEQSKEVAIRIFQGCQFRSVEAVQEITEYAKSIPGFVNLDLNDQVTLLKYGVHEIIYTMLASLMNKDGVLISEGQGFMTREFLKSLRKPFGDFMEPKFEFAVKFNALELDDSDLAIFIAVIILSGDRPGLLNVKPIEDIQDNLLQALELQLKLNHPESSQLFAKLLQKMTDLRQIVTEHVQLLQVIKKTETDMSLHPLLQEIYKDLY

Structure (SMILES): CCC(Cc1ccc(OC)c(CNC(=O)c2ccc(C(F)(F)F)cc2F)c1)C(=O)O (racemic) [Compound 38]
- EC50 (PPARα [1]): 10 nM
- EC50 (PPARδ [2]): 24 nM
- EC50 (PPARγ [3]): 2200 nM

Structure (SMILES): CCC(Cc1ccc(OC)c(CNC(=O)c2ccc(C(F)(F)F)cc2)c1)C(=O)O (racemic) [Compound 49]
- EC50 (PPARα [1]): 18 nM
- EC50 (PPARδ [2]): 170 nM

Structure (SMILES): CCC(Cc1ccc(OC)c(CNC(=O)c2ccc(C(F)(F)F)cc2F)c1)C(=O)O (racemic) [Compound 55]
- EC50 (PPARα [1]): 8.2 nM
- EC50 (PPARδ [2]): 21 nM

Structure (SMILES): COc1ccc(C(=O)O)cc1C(=O)NCc1ccc(C(F)(F)F)cc1 [Compound 7]
- Transactivation activity EC50 PPARα (PPARα [4]): ia^(b)
- Transactivation activity EC50 PPARδ (PPARδ [5]): ia
- Transactivation activity EC50 PPARγ (PPARγ [6]): ia

Structure (SMILES): COc1ccc(CC(=O)O)cc1C(=O)NCc1ccc(C(F)(F)F)cc1 [Compound 8]
- Transactivation activity EC50 PPARα (PPARα [4]): ia
- Transactivation activity EC50 PPARδ (PPARδ [5]): ia
- Transactivation activity EC50 PPARγ (PPARγ [6]): ia

Structure (SMILES): COc1ccc(CCC(=O)O)cc1C(=O)NCc1ccc(C(F)(F)F)cc1 [Compound 9]
- EC50 (PPARα [4]): 1300 nM
- Transactivation activity EC50 PPARδ (PPARδ [5]): ia
- Transactivation activity EC50 PPARγ (PPARγ [6]): ia

Structure (SMILES): COc1ccc(CC(C)C(=O)O)cc1C(=O)NCc1ccc(C(F)(F)F)cc1 (stereo not drawn) [Compound 10]
- EC50 (PPARα [4]): 240 nM
- EC50 (PPARδ [5]): 2800 nM
- Transactivation activity EC50 PPARγ (PPARγ [6]): ia

Structure (SMILES): CCC(Cc1ccc(OC)c(C(=O)NCc2ccc(C(F)(F)F)cc2)c1)C(=O)O (stereo not drawn) [Compound 11]
- EC50 (PPARα [4]): 40 nM
- EC50 (PPARδ [5]): 3600 nM

Structure (SMILES): CCCC(Cc1ccc(OC)c(C(=O)NCc2ccc(C(F)(F)F)cc2)c1)C(=O)O (stereo not drawn) [Compound 12]
- EC50 (PPARα [4]): 360 nM
- EC50 (PPARδ [5]): 2400 nM
- Transactivation activity EC50 PPARγ (PPARγ [6]): ia

Structure (SMILES): COc1ccc(CC(C(=O)O)C(C)C)cc1C(=O)NCc1ccc(C(F)(F)F)cc1 (stereo not drawn) [Compound 13]
- EC50 (PPARα [4]): 290 nM
- Transactivation activity EC50 PPARδ (PPARδ [5]): ia
- Transactivation activity EC50 PPARγ (PPARγ [6]): ia

Structure (SMILES): CCCCC(Cc1ccc(OC)c(C(=O)NCc2ccc(C(F)(F)F)cc2)c1)C(=O)O (stereo not drawn) [Compound 14]
- EC50 (PPARα [4]): 1000 nM
- Transactivation activity EC50 PPARδ (PPARδ [5]): ia
- EC50 (PPARγ [6]): 2500 nM

Structure (SMILES): COc1ccc(CC(C(=O)O)c2ccccc2)cc1C(=O)NCc1ccc(C(F)(F)F)cc1 (stereo not drawn) [Compound 15]
- Transactivation activity EC50 PPARα (PPARα [4]): ia
- Transactivation activity EC50 PPARδ (PPARδ [5]): ia
- Transactivation activity EC50 PPARγ (PPARγ [6]): ia

Structure (SMILES): COc1ccc(CC(OC)C(=O)O)cc1C(=O)NCc1ccc(C(F)(F)F)cc1 (stereo not drawn) [Compound 16]
- EC50 (PPARα [4]): 230 nM
- Transactivation activity EC50 PPARδ (PPARδ [5]): ia
- Transactivation activity EC50 PPARγ (PPARγ [6]): ia

Structure (SMILES): CCOC(Cc1ccc(OC)c(C(=O)NCc2ccc(C(F)(F)F)cc2)c1)C(=O)O (stereo not drawn) [Compound 17]
- EC50 (PPARα [4]): 1600 nM
- EC50 (PPARδ [5]): 3000 nM
- EC50 (PPARγ [6]): 2800 nM

Structure (SMILES): COc1ccc(CC(Oc2ccccc2)C(=O)O)cc1C(=O)NCc1ccc(C(F)(F)F)cc1 (stereo not drawn) [Compound 18]
- Transactivation activity EC50 PPARα (PPARα [4]): ia
- Transactivation activity EC50 PPARδ (PPARδ [5]): ia
- Transactivation activity EC50 PPARγ (PPARγ [6]): ia

Structure (SMILES): COc1ccc(CC(C)(C)C(=O)O)cc1C(=O)NCc1ccc(C(F)(F)F)cc1 [Compound 19]
- EC50 (PPARα [4]): 2900 nM
- Transactivation activity EC50 PPARδ (PPARδ [5]): ia
- Transactivation activity EC50 PPARγ (PPARγ [6]): ia

Structure (SMILES): CCC(CC)(Cc1ccc(OC)c(C(=O)NCc2ccc(C(F)(F)F)cc2)c1)C(=O)O [Compound 20]
- EC50 (PPARα [4]): 2800 nM
- Transactivation activity EC50 PPARδ (PPARδ [5]): ia
- Transactivation activity EC50 PPARγ (PPARγ [6]): ia

Structure (SMILES): COc1ccc(CC(Sc2ccccc2)C(=O)O)cc1C(=O)NCc1ccc(C(F)(F)F)cc1 (stereo not drawn) [Compound 22]
- Transactivation activity EC50 PPARα (PPARα [4]): ia
- Transactivation activity EC50 PPARδ (PPARδ [5]): ia
- Transactivation activity EC50 PPARγ (PPARγ [6]): ia

Structure (SMILES): COc1ccc(CC(SCc2ccccc2)C(=O)O)cc1C(=O)NCc1ccc(C(F)(F)F)cc1 (stereo not drawn) [Compound 23]
- Transactivation activity EC50 PPARα (PPARα [4]): ia
- Transactivation activity EC50 PPARδ (PPARδ [5]): ia
- Transactivation activity EC50 PPARγ (PPARγ [6]): ia
